Data from US8741576B2, “Heteroclitic analogs and related methods” (Epimunne Inc., priority 1999, dated 2014).
Ends that are not written are not given here.

Columns and labels:
HLA-B7 (B*0702) = HLA-B7 (B*0702) (Homo sapiens, UniProt P01889); test: HLA-B7 (B*0702) peptide binding, competition with radiolabeled SS 5-13a (L7→Y) peptide; conditions: purified HLA-B7
[1] = system: human PBMC CTL; 624mel tumor cell line; test: Primary in vitro CTL induction from human PBMC with MAGE3.112 or analogs; conditions: IFNγ against .221A2.1 cells with or without peptide

Molecule: VPISHLGIL [MAGE2.170G7]
- IC50 (HLA-B7 (B*0702)): 0.105 µM

Molecule: VPISHLMIL [MAGE2.170M7]
- IC50 (HLA-B7 (B*0702)): 0.069 µM

Molecule: VPISHLEIL [MAGE2.170E7]
- IC50 (HLA-B7 (B*0702)): 0.186 µM

Molecule: CC(C)C[C@H](NC(=O)[C@H](Cc1ccccc1)NC(=O)[C@H](Cc1c[nH]c2ccccc12)NC(=O)[C@@H](NC(=O)[C@H](CC(C)C)NC(=O)[C@H](CCC(=O)O)NC(=O)[C@H](C)NC(=O)[C@@H](NC(=O)[C@@H](N)CCCCN)C(C)C)C(C)C)C(=O)O [MAGE3.112 W7]
- peptide-specific CTL responses in human PBMC cultures stimulated with the peptide [1]: Peptide-specific CTL responses were detected

Molecule: CC[C@H](C)[C@H](NC(=O)[C@H](CCC(=O)O)NC(=O)[C@H](C)NC(=O)[C@@H](NC(=O)[C@@H](N)CCCCN)C(C)C)C(=O)N[C@H](C(=O)N[C@@H](Cc1c[nH]cn1)C(=O)N[C@@H](Cc1ccccc1)C(=O)N[C@@H](CC(C)C)C(=O)O)C(C)C [MAGE3.112 I5]
- peptide-specific CTL responses in human PBMC cultures stimulated with the peptide [1]: Peptide-specific CTL responses were detected

Molecule: VPISHLHIL [MAGE2.170H7]
- IC50 (HLA-B7 (B*0702)): 0.075 µM
